Source: patent US10322111B2, “Chemokine receptor binding heterocyclic compounds with enhanced efficacy” (Genzyme Corporation, priority 2001, dated 2019)
Where two headings read alike, the source gives them in different places.

Legend:
progenitor cells = conditions: mice, AMD3100 5 mg/Kg s.c. + MIP-1α 5 μg I.V., 11 hours after rhu G-CSF or saline, blood 1 hour later
Experimental: One hour later, the mice were sacrificed and the number of progenitor cells per mL of blood were measured.

[1] = tested on: CFU-GM, BFU-E and CFU-GEMM progenitor cells; conditions: 80 μg/kg s.c.

In the case of `c1cc(CN2CCCNCCNCCCNCC2)ccc1CN1CCCNCCNCCCNCC1` [AMD3100, 1,1′-[1,4-phenylene-bis(methylene)]-bis-1,4,8,11-tetraazacyclotetradecane], the “mobilization of progenitor cells in combination with mu MIP-1α” value (progenitor cells) is reported as “additive to greater than additive”, the “Absolute # of Progenitors per ML, BFU-E” value ([1]; P1, T = 1 h after injection) is reported as 674 per ML and the “Absolute # of Progenitors per ML, CFU-GEMM” value (“Absolute # … per ML, CFU-GEMM” below) ([1]; P1, T = 1 h after injection) is reported as 264 per ML. For the same compound, the “Absolute # of Progenitors per ML, CFU-GM” value ([1]; P1, T = 1 h after injection) was 1259 per ML, the “fold change from T=0, progenitors BFU-E, methylcellulose culture” value (shortened to “fold change from T=0, progenitors BFU-E”) ([1]; P1, T = 1 h after injection) was 2.58 fold and the “fold change from T=0, progenitors CFU-GEMM, methylcellulose culture” value ([1]; P1, T = 1 h after injection) was 2.07 fold. The “fold change from T=0, progenitors CFU-GM, methylcellulose culture” value (shortened to “fold change from T=0, progenitors CFU-GM”) ([1]; P1, T = 1 h after injection) was 5.09 fold, the “Absolute # of Progenitors per ML, BFU-E” value ([1]; P1, T = 3 h after injection) was 1340 per ML and the “Absolute # … per ML, CFU-GEMM” value ([1]; P1, T = 3 h after injection) was 540 per ML. The “Absolute # of Progenitors per ML, CFU-GM” value ([1]; P1, T = 3 h after injection) was 1760 per ML, the “fold change from T=0, progenitors BFU-E” value ([1]; P1, T = 3 h after injection) was 5.13 fold and the “fold change from T=0, progenitors CFU-GEMM, methylcellulose culture” value ([1]; P1, T = 3 h after injection) was 4.25 fold. The “fold change from T=0, progenitors CFU-GM” value ([1]; P1, T = 3 h after injection) was 7.12 fold, the “Absolute # of Progenitors per ML, BFU-E” value ([1]; P1, T = 6 h after injection) was 2388 per ML and the “Absolute # … per ML, CFU-GEMM” value ([1]; P1, T = 6 h after injection) was 949 per ML. For the same compound, the “Absolute # of Progenitors per ML, CFU-GM” value ([1]; P1, T = 6 h after injection) was 3624 per ML, the “fold change from T=0, progenitors BFU-E” value ([1]; P1, T = 6 h after injection) was 9.14 fold and the “fold change from T=0, progenitors CFU-GEMM, methylcellulose culture” value ([1]; P1, T = 6 h after injection) was 7.47 fold. For the same compound, the “fold change from T=0, progenitors CFU-GM” value ([1]; P1, T = 6 h after injection) was 14.66 fold, the “Absolute # of Progenitors per ML, BFU-E” value ([1]; P1, T = 9 h after injection) was 1418 per ML and the “Absolute # … per ML, CFU-GEMM” value ([1]; P1, T = 9 h after injection) was 335 per ML. The “Absolute # of Progenitors per ML, CFU-GM” value ([1]; P1, T = 9 h after injection) was 1547 per ML, the “fold change from T=0, progenitors BFU-E” value ([1]; P1, T = 9 h after injection) was 5.43 fold and the “fold change from T=0, progenitors CFU-GEMM, methylcellulose culture” value ([1]; P1, T = 9 h after injection) was 2.64 fold. For the same compound, the “fold change from T=0, progenitors CFU-GM” value ([1]; P1, T = 9 h after injection) was 6.26 fold, the “Absolute # of Progenitors per ML, BFU-E” value ([1]; P1, T = 24 h after injection) was 278 per ML and the “Absolute # … per ML, CFU-GEMM” value ([1]; P1, T = 24 h after injection) was 142 per ML. The “Absolute # of Progenitors per ML, CFU-GM” value ([1]; P1, T = 24 h after injection) was 271 per ML, the “fold change from T=0, progenitors BFU-E” value ([1]; P1, T = 24 h after injection) was 1.06 fold and the “fold change from T=0, progenitors CFU-GEMM, methylcellulose culture” value ([1]; P1, T = 24 h after injection) was 1.12 fold. For the same compound, the “fold change from T=0, progenitors CFU-GM” value ([1]; P1, T = 24 h after injection) was 1.10 fold, the “Absolute # of Progenitors per ML, BFU-E” value ([1]; P2, T = 1 h after injection) was 608 per ML and the “Absolute # … per ML, CFU-GEMM” value ([1]; P2, T = 1 h after injection) was 272 per ML. The “Absolute # of Progenitors per ML, CFU-GM” value ([1]; P2, T = 1 h after injection) was 1455 per ML, the “fold change from T=0, progenitors BFU-E” value ([1]; P2, T = 1 h after injection) was 1.48 fold and the “fold change from T=0, progenitors CFU-GEMM, methylcellulose culture” value ([1]; P2, T = 1 h after injection) was 2.26 fold. For the same compound, the “fold change from T=0, progenitors CFU-GM” value ([1]; P2, T = 1 h after injection) was 5.33 fold, the “Absolute # of Progenitors per ML, BFU-E” value ([1]; P2, T = 3 h after injection) was 809 per ML and the “Absolute # … per ML, CFU-GEMM” value ([1]; P2, T = 3 h after injection) was 418 per ML. For the same compound, the “Absolute # of Progenitors per ML, CFU-GM” value ([1]; P2, T = 3 h after injection) was 4646 per ML, the “fold change from T=0, progenitors BFU-E” value ([1]; P2, T = 3 h after injection) was 1.98 fold and the “fold change from T=0, progenitors CFU-GEMM, methylcellulose culture” value ([1]; P2, T = 3 h after injection) was 3.47 fold. The “fold change from T=0, progenitors CFU-GM” value ([1]; P2, T = 3 h after injection) was 17.02 fold, the “Absolute # of Progenitors per ML, BFU-E” value ([1]; P2, T = 6 h after injection) was 1502 per ML and the “Absolute # … per ML, CFU-GEMM” value ([1]; P2, T = 6 h after injection) was 1126 per ML. The “Absolute # of Progenitors per ML, CFU-GM” value ([1]; P2, T = 6 h after injection) was 6540 per ML, the “fold change from T=0, progenitors BFU-E” value ([1]; P2, T = 6 h after injection) was 3.67 fold and the “fold change from T=0, progenitors CFU-GEMM, methylcellulose culture” value ([1]; P2, T = 6 h after injection) was 9.35 fold. For the same compound, the “fold change from T=0, progenitors CFU-GM” value ([1]; P2, T = 6 h after injection) was 23.96 fold, the “Absolute # of Progenitors per ML, BFU-E” value ([1]; P2, T = 9 h after injection) was 1886 per ML and the “Absolute # … per ML, CFU-GEMM” value ([1]; P2, T = 9 h after injection) was 854 per ML. For the same compound, the “Absolute # of Progenitors per ML, CFU-GM” value ([1]; P2, T = 9 h after injection) was 3416 per ML, the “fold change from T=0, progenitors BFU-E” value ([1]; P2, T = 9 h after injection) was 4.61 fold and the “fold change from T=0, progenitors CFU-GEMM, methylcellulose culture” value ([1]; P2, T = 9 h after injection) was 7.09 fold. The “fold change from T=0, progenitors CFU-GM” value ([1]; P2, T = 9 h after injection) was 12.51 fold, the “Absolute # of Progenitors per ML, BFU-E” value ([1]; P2, T = 24 h after injection) was 768 per ML and the “Absolute # … per ML, CFU-GEMM” value ([1]; P2, T = 24 h after injection) was 316 per ML. The “Absolute # of Progenitors per ML, CFU-GM” value ([1]; P2, T = 24 h after injection) was 521 per ML, the “fold change from T=0, progenitors BFU-E” value ([1]; P2, T = 24 h after injection) was 1.88 fold and the “fold change from T=0, progenitors CFU-GEMM, methylcellulose culture” value ([1]; P2, T = 24 h after injection) was 2.62 fold. For the same compound, the “fold change from T=0, progenitors CFU-GM” value ([1]; P2, T = 24 h after injection) was 1.91 fold, the “Absolute # of Progenitors per ML, BFU-E” value ([1]; P3, T = 1 h after injection) was 806 per ML and the “Absolute # … per ML, CFU-GEMM” value ([1]; P3, T = 1 h after injection) was 312 per ML. For the same compound, the “Absolute # of Progenitors per ML, CFU-GM” value ([1]; P3, T = 1 h after injection) was 1040 per ML, the “fold change from T=0, progenitors BFU-E” value ([1]; P3, T = 1 h after injection) was 2.30 fold and the “fold change from T=0, progenitors CFU-GEMM, methylcellulose culture” value ([1]; P3, T = 1 h after injection) was 2.22 fold. For the same compound, the “fold change from T=0, progenitors CFU-GM” value ([1]; P3, T = 1 h after injection) was 3.70 fold, the “Absolute # of Progenitors per ML, BFU-E” value ([1]; P3, T = 3 h after injection) was 915 per ML and the “Absolute # … per ML, CFU-GEMM” value ([1]; P3, T = 3 h after injection) was 610 per ML. The “Absolute # of Progenitors per ML, CFU-GM” value ([1]; P3, T = 3 h after injection) was 4233 per ML, the “fold change from T=0, progenitors BFU-E” value ([1]; P3, T = 3 h after injection) was 2.61 fold and the “fold change from T=0, progenitors CFU-GEMM, methylcellulose culture” value ([1]; P3, T = 3 h after injection) was 4.34 fold. For the same compound, the “fold change from T=0, progenitors CFU-GM” value ([1]; P3, T = 3 h after injection) was 15.07 fold, the “Absolute # of Progenitors per ML, BFU-E” value ([1]; P3, T = 6 h after injection) was 1593 per ML and the “Absolute # … per ML, CFU-GEMM” value ([1]; P3, T = 6 h after injection) was 916 per ML. For the same compound, the “Absolute # of Progenitors per ML, CFU-GM” value ([1]; P3, T = 6 h after injection) was 5895 per ML, the “fold change from T=0, progenitors BFU-E” value ([1]; P3, T = 6 h after injection) was 4.54 fold and the “fold change from T=0, progenitors CFU-GEMM, methylcellulose culture” value ([1]; P3, T = 6 h after injection) was 6.52 fold. The “fold change from T=0, progenitors CFU-GM” value ([1]; P3, T = 6 h after injection) was 20.99 fold, the “Absolute # of Progenitors per ML, BFU-E” value ([1]; P3, T = 9 h after injection) was 1302 per ML and the “Absolute # … per ML, CFU-GEMM” value ([1]; P3, T = 9 h after injection) was 347 per ML. The “Absolute # of Progenitors per ML, CFU-GM” value ([1]; P3, T = 9 h after injection) was 2647 per ML, the “fold change from T=0, progenitors BFU-E” value ([1]; P3, T = 9 h after injection) was 3.71 fold and the “fold change from T=0, progenitors CFU-GEMM, methylcellulose culture” value ([1]; P3, T = 9 h after injection) was 2.47 fold. For the same compound, the “fold change from T=0, progenitors CFU-GM” value ([1]; P3, T = 9 h after injection) was 9.42 fold, the “Absolute # of Progenitors per ML, BFU-E” value ([1]; P3, T = 24 h after injection) was 402 per ML and the “Absolute # … per ML, CFU-GEMM” value ([1]; P3, T = 24 h after injection) was 97 per ML. For the same compound, the “Absolute # of Progenitors per ML, CFU-GM” value ([1]; P3, T = 24 h after injection) was 402 per ML, the “fold change from T=0, progenitors BFU-E” value ([1]; P3, T = 24 h after injection) was 1.14 fold and the “fold change from T=0, progenitors CFU-GEMM, methylcellulose culture” value ([1]; P3, T = 24 h after injection) was 0.69 fold.
